Experimental data: ChEMBL document CHEMBL3351447, “Design, synthesis and anticancer evaluation of tetrahydro-β-carboline-hydantoin hybrids” (Bioorg Med Chem Lett, 2014)
The source made the active and inactive calls. The rule behind the calls is not given here.

How the values were obtained:
[1] = test system: MCF7; assay: Cytotoxicity against human MCF7 cells after 72 hrs by MTT assay; type: functional, cell-based; details: MCF7, 72 h
[2] = Cytotoxicity against human ME180 cells after 72 hrs by MTT assay; type: functional, cell-based; details: ME-180, 72 h
[3] = test system: A549; assay: Cytotoxicity against human A549 cells after 72 hrs by MTT assay; type: functional, cell-based; details: A549, 72 h
[4] = test system: HeLa; assay: Cytotoxicity against human HeLa cells after 72 hrs by MTT assay; type: functional, cell-based
[5] = Cytotoxicity against human PC3 cells after 72 hrs by MTT assay; type: functional, cell-based; details: PC-3, 72 h
[6] = Selectivity index, ratio of IC50 for human RWPE cells to IC50 for human PC3 cells; type: functional
[7] = test system: PC-3; assay: Induction of apoptosis in human PC3 cells assessed as early apoptotic cells at 3 uM after 48 hrs by orange/ethidium bromide staining based fluorescence microscopy; type: functional
[8] = test system: PC-3; assay: Induction of apoptosis in human PC3 cells assessed as induction of membrane blebbing at 3 and 6 uM after 48 hrs by orange/ethidium bromide staining based fluorescence microscopy; type: functional, cell-based
[9] = test system: PC-3; assay: Induction of cell cycle arrest in human PC3 cells assessed as accumulation at G2/M phase at 6 uM after 48 hrs by propidium iodide staining based flow cytometry (reference value: 20.9%); type: functional
[10] = test system: PC-3; assay: Induction of cell cycle arrest in human PC3 cells assessed as accumulation at S phase at 3 uM after 48 hrs by propidium iodide staining based flow cytometry (reference value: 15.8%); type: functional
[11] = test system: PC-3; assay: Induction of cell cycle arrest in human PC3 cells assessed as accumulation at S phase at 6 uM after 48 hrs by propidium iodide staining based flow cytometry (reference value: 15.8%); type: functional
[12] = test system: PC-3; assay: Induction of cell cycle arrest in human PC3 cells assessed as accumulation at G2/M phase at 3 and 6 uM after 48 hrs by propidium iodide staining based flow cytometry; type: functional
[13] = test system: PC-3; assay: Induction of apoptosis in human PC3 cells assessed as induction of chromatin condensation with destructive fragmentation of the nucleus at 3 and 6 uM after 48 hrs by orange/ethidium bromide staining based fluorescence microscopy; type: functional, cell-based
[14] = test system: PC-3; assay: Induction of cell cycle arrest in human PC3 cells assessed as accumulation at G0/G1 phase at 3 uM after 48 hrs by propidium iodide staining based flow cytometry (reference value: 55%); type: functional
[15] = test system: PC-3; assay: Induction of apoptosis in human PC3 cells assessed as induction of apoptotic body formation at 3 and 6 uM after 48 hrs by orange/ethidium bromide staining based fluorescence microscopy; type: functional, cell-based
[16] = test system: PC-3; assay: Induction of cell cycle arrest in human PC3 cells assessed as accumulation at G0/G1 phase at 6 uM after 48 hrs by propidium iodide staining based flow cytometry (reference value: 55%); type: functional
[17] = test system: PC-3; assay: Induction of apoptosis in human PC3 cells assessed as early apoptotic cells at 6 uM after 48 hrs by orange/ethidium bromide staining based fluorescence microscopy; type: functional
[18] = test system: PC-3; assay: Induction of apoptosis in human PC3 cells assessed as early apoptotic cells at 1 uM after 48 hrs by orange/ethidium bromide staining based fluorescence microscopy; type: functional
[19] = test system: PC-3; assay: Induction of apoptosis in human PC3 cells assessed as induction of cell shrinkage at 3 and 6 uM after 48 hrs by orange/ethidium bromide staining based fluorescence microscopy; type: functional
[20] = test system: PC-3; assay: Induction of cell cycle arrest in human PC3 cells assessed as accumulation at G2/M phase at 3 uM after 48 hrs by propidium iodide staining based flow cytometry (reference value: 20.9%); type: functional

SMILES	IC50 [1] [µM]	IC50 [2] [µM]	IC50 [3] [µM]	IC50 [4] [µM]	IC50 [5] [µM]	other results
O=C1[C@@H]2Cc3c([nH]c4ccccc34)[C@@H](c3cccc(O)c3)N2C(=O)N1c1cccc(C(F)(F)F)c1	70.9	> 100	> 100	31.9	37.1	
O=C1[C@H]2Cc3c([nH]c4ccccc34)[C@@H](c3cccc(O)c3)N2C(=O)N1c1cccc(C(F)(F)F)c1	42.6	22.6	40	13.6	11.2	
COc1cc([C@@H]2c3cc4c(cc3[C@@H](O[C@@H]3O[C@@H]5CO[C@@H](C)O[C@H]5[C@H](O)[C@H]3O)[C@H]3COC(=O)[C@H]23)OCO4)cc(OC)c1O [ETOPOSIDE]		8.9	50	4.71	14.4	Ratio IC50 [6]: 2
COc1cc([C@@H]2c3[nH]c4ccccc4c3C[C@@H]3C(=O)N(Cc4ccc(Br)cc4)C(=O)N23)ccc1O	19.9	> 100	> 100	84.3	12	
O=C1[C@H]2Cc3c([nH]c4ccccc34)[C@@H](c3cccc(O)c3)N2C(=O)N1c1ccc(Cl)cc1	40.5	17	34.8	12.1	10.3	
COc1cc([C@@H]2c3[nH]c4ccccc4c3C[C@@H]3C(=O)N(CCCl)C(=O)N23)ccc1O	> 100	> 100	> 100	33.1	29.1	
O=C1[C@@H]2Cc3c([nH]c4ccccc34)[C@@H](c3cccc(O)c3)N2C(=O)N1c1ccc(Cl)cc1	26	24.6	16	6.5	6.08	Activity [7]: 25%; Activity [8]: Active; Activity [9]: 34.1%; Activity [10]: 15.8%; Activity [11]: 11.8%; fold change (FC) [12]: 1.63; Activity [13]: Active; Activity [14]: 43.9%; Ratio IC50 [6]: 5; Activity [15]: Active; Activity [16]: 45.5%; Activity [17]: 42.5%; Activity [18]: 8%; Activity [19]: Active; Activity [20]: 31.5%
COc1cc([C@@H]2c3[nH]c4ccccc4c3C[C@H]3C(=O)N(c4ccc(Cl)cc4)C(=O)N23)ccc1O	42.2	> 100	> 100	30.3	13.4	
O=C1[C@@H]2Cc3c([nH]c4ccccc34)[C@@H](c3cccc(O)c3)N2C(=O)N1CCCl	48.2	59.5	68	60.3	49	
O=C1[C@@H]2Cc3c([nH]c4ccccc34)[C@@H](c3cccc(O)c3)N2C(=O)N1Cc1ccc(Br)cc1	24.9	88.6	34.8	24.3	8.9	Ratio IC50 [6]: 1.9
COc1cc([C@@H]2c3[nH]c4ccccc4c3C[C@@H]3C(=O)N(c4cccc(C(F)(F)F)c4)C(=O)N23)ccc1O	35.9	30.7	43.9	15.6	11.7	
O=C1[C@H]2Cc3c([nH]c4ccccc34)[C@@H](c3cccc(O)c3)N2C(=O)N1Cc1ccc(Br)cc1	27.9	17.5	35.4	11.2	9.13	Ratio IC50 [6]: 1.7
COc1cccc2c1C(=O)c1c(O)c3c(c(O)c1C2=O)C[C@@](O)(C(=O)CO)C[C@@H]3O[C@H]1C[C@H](N)[C@H](O)[C@H](C)O1 [DOXORUBICIN]		0.39				
COc1cc([C@@H]2c3[nH]c4ccccc4c3C[C@H]3C(=O)N(CCCl)C(=O)N23)ccc1O	50.7	> 100	> 100	50	35.5	
COc1cc([C@@H]2c3[nH]c4ccccc4c3C[C@@H]3C(=O)N(c4ccc(Cl)cc4)C(=O)N23)ccc1O	19.7	> 100	> 100	30.6	13.4	
COc1cc([C@@H]2c3[nH]c4ccccc4c3C[C@H]3C(=O)N(Cc4ccc(Br)cc4)C(=O)N23)ccc1O	> 100	> 100	77.5	82.9	> 100	
COc1cc([C@@H]2c3[nH]c4ccccc4c3C[C@H]3C(=O)N(c4cccc(C(F)(F)F)c4)C(=O)N23)ccc1O	48	27.4	> 100	11.4	9.6	Ratio IC50 [6]: 1.6
O=C1[C@H]2Cc3c([nH]c4ccccc34)[C@@H](c3cccc(O)c3)N2C(=O)N1CCCl	> 100	48	> 100	30.3	22.3	
